What was measured:
Puccinia recondita = assay: foliar fungal disease control, Puccinia recondita on wheat; type: in vivo; conditions: 100 ppm foliar spray plus root drench approx. 40 ppm a.i./dry soil
Protocol: (§1) The compounds were tested against a variety of foliar fungal diseases of plants. The technique employed was as follows.
(§2) The plants were grown in John Innes Potting Compost (No 1 or 2) in 4 cm diameter minipots. The test compounds were formulated either by bead milling with aqueous Dispersol T or as a solution in acetone or acetone/ethanol which was diluted to the required concentration immediately before use. […] The sprays were applied to maximum retention and the root drenches to a final concentration equivalent to approximately 40 ppm a.i./dry soil. Tween 20, to give a final concentration of 0.05%, was added when the sprays were applied to cereals.
(§3) For most of the tests the compound was applied to the soil (roots) and to the foliage (by spraying) one or two days before the plant was inoculated with the disease. An exception was the test on Erysiphe graminis in which the plants were inoculated 24 hours before treatment. Foliar pathogens were applied by spray as spore suspensions onto the leaves of test plants. After inoculation, the plants were put into an appropriate environment to allow infection to proceed and then incubated until the disease was ready for assessment. The period between inoculation and assessment varied from four to fourteen days according to the disease and environment.
(§4) The disease control was recorded by the following grading: […]

Erysiphe graminis hordei = assay: foliar fungal disease control, Erysiphe graminis hordei on barley; type: in vivo; conditions: 100 ppm foliar spray plus root drench approx. 40 ppm a.i./dry soil; inoculated 24 hours before treatment
Protocol: as §1, §2, §3, §4

Venturia inaequalis = assay: foliar fungal disease control, Venturia inaequalis on apple; type: in vivo; conditions: 100 ppm foliar spray plus root drench approx. 40 ppm a.i./dry soil
Protocol: as §1, §2, §3, §4

Pyricularia oryzae = type: in vivo, Pyricularia oryzae (rice); conditions: 100 ppm foliar spray plus root drench approx. 40 ppm a.i./dry soil
Cercospora arachidicola = assay: foliar fungal disease control, Cercospora arachidicola on peanut; type: in vivo; conditions: 100 ppm foliar spray plus root drench approx. 40 ppm a.i./dry soil
Protocol: as §1, §2, §3, §4

Plasmopara viticola = assay: foliar fungal disease control, Plasmopara viticola on vine; type: in vivo; conditions: 100 ppm foliar spray plus root drench approx. 40 ppm a.i./dry soil
Protocol: as §1, §2, §3, §4

[1] = test system: Tetranychus uritcae (spider mites and ova); assay: pest mortality, Tetranychus uritcae, contact test; type: in vivo; conditions: 500 ppm, French bean leaf, duration 3 days
Protocol: (§5) The activity of each compound was determined using a variety of insect mites and nematode pests. The compound was used in the form of liquid preparations containing from 100 to 500 parts per million (ppm) by weight of the compound. The preparations were made by dissolving the compound in acetone and diluting the solutions with water containing 0.1% by weight of a wetting agent sold under the trade name "SYNPERONIC" NX until the liquid preparations contained the required concentration of the product. "SYNPERONIC" is a Registered Trade Mark.
(§6) The test procedure adopted with regard to each pest was basically the same and comprised supporting a number of the pests on a medium which was usually a host plant or a food stuff on which the pests feed, and treating either or both the pests and the medium with the preparations. The mortality of the pests was then assessed at periods usually varying from one to seven days after the treatment. […]

[2] = test system: Chilo partellus (maize stem borers); assay: pest mortality, Chilo partellus, residual test; type: in vivo; conditions: 500 ppm, oil seed rape leaf, duration 3 days
Protocol: as §5, §6

[3] = test system: Diabrotica balteata (rootworm larvae); assay: pest mortality, Diabrotica balteata, residual test; type: in vivo; conditions: 500 ppm, filter paper/maize seed, duration 3 days
Protocol: as §5, §6

[4] = test system: Musca domestica (houseflies - adults); assay: pest mortality, Musca domestica, contact test; type: in vivo; conditions: 500 ppm, cotton wool/sugar, duration 1 day
Protocol: as §5, §6

Phytophthora infestans = type: in vivo, Phytophthora infestans (tomato); conditions: 100 ppm foliar spray plus root drench approx. 40 ppm a.i./dry soil

| SMILES | disease control grading, Puccinia recondita (wheat) (Puccinia recondita) | disease control grading, Erysiphe graminis hordei (barley) (Erysiphe graminis hordei) | disease control grading, Venturia inaequalis (apple) (Venturia inaequalis) | disease control grading, Pyricularia oryzae (rice) (Pyricularia oryzae) | disease control grading, Cercospora arachidicola (peanut) (Cercospora arachidicola) | disease control grading, Plasmopara viticola (vine) (Plasmopara viticola) | grading of mortality, TUe [1] | grading of mortality, CP [2] | grading of mortality, DB [3] | grading of mortality, MD [4] | disease control grading, Phytophthora infestans (tomato) (Phytophthora infestans) |
| --- | --- | --- | --- | --- | --- | --- | --- | --- | --- | --- | --- |
| CO/C=C(/C(=O)OC)c1ccccc1Oc1ccc(Cl)cn1 [Compound 14 (Table I), (E)-methyl 2-[2'-(5"-chloropyridin-2"-yloxy)phenyl]-3-methoxyacrylate] | 4 | 4 | 2 (6-25% of disease on untreated plants) | 4 | 4 | 4 | 0 (less than 50% mortality) | 9 (80-100% mortality) | 5 (50-79% mortality) | 9 (80-100% mortality) |  |
| CO/C=C(/C(=O)OC)c1ccccc1Oc1ccc(Br)cn1 [Compound 15 (Table I)] | 4 | 4 |  | 3 (trace-5% of disease on untreated plants) | 3 (trace-5% of disease on untreated plants) | 4 | 0 (less than 50% mortality) |  | 9 (80-100% mortality) | 0 (less than 50% mortality) |  |
| CO/C=C(/C(=O)OC)c1ccccc1Oc1ccc(N)cn1 [Compound 131 (Table I)] | 3 (trace-5% of disease on untreated plants) | 0 (60-100% of disease on untreated plants) | 0 (60-100% of disease on untreated plants) | 0 (60-100% of disease on untreated plants) | 0 (60-100% of disease on untreated plants) | 0 (60-100% of disease on untreated plants) |  |  |  |  | 0 (60-100% of disease on untreated plants) |
| CO/C=C(/C(=O)OC)c1ccccc1Oc1nc(F)cc(F)n1 [Compound 137 (Table I)] | 2 (6-25% of disease on untreated plants) | 0 (60-100% of disease on untreated plants) | 4 | 0 (60-100% of disease on untreated plants) | 0 (60-100% of disease on untreated plants) | 0 (60-100% of disease on untreated plants) |  |  |  |  | 0 (60-100% of disease on untreated plants) |
| CO/C=C(/C(=O)OC)c1ccccc1Oc1cc(F)nc(F)n1 [Compound 138 (Table I)] | 4 | 0 (60-100% of disease on untreated plants) | 3 (trace-5% of disease on untreated plants) | 0 (60-100% of disease on untreated plants) | 0 (60-100% of disease on untreated plants) | 4 |  |  |  |  | 0 (60-100% of disease on untreated plants) |
| CO/C=C(/C(=O)OC)c1ccccc1Oc1cc(C(Cl)(Cl)Cl)nc(Cl)n1 [Compound 139 (Table I)] | 4 | 0 (60-100% of disease on untreated plants) | 0 (60-100% of disease on untreated plants) | 2 (6-25% of disease on untreated plants) | 4 | 4 |  |  |  |  | 0 (60-100% of disease on untreated plants) |
| CO/C=C(/C(=O)OC)c1ccccc1Oc1cc(Cl)nc(Cl)n1 [Compound 140 (Table I)] | 2 (6-25% of disease on untreated plants) | 0 (60-100% of disease on untreated plants) | 0 (60-100% of disease on untreated plants) | 0 (60-100% of disease on untreated plants) | 0 (60-100% of disease on untreated plants) | 4 |  |  |  |  | 0 (60-100% of disease on untreated plants) |
| CO/C=C(/C(=O)OC)c1ccccc1Oc1ccc2ccccc2n1 [Compound 165 (Table I)] | 2 (6-25% of disease on untreated plants) | 4 | 4 | 2 (6-25% of disease on untreated plants) | 4 | 4 |  |  |  |  | 3 (trace-5% of disease on untreated plants) |
| CO/C=C(/C(=O)OC)c1ccccc1Oc1nc(C)cc(Cl)n1 [Compound 166 (Table I)] | 4 | 4 | 4 | 1 (26-59% of disease on untreated plants) | 4 | 3 (trace-5% of disease on untreated plants) |  |  |  |  | 3 (trace-5% of disease on untreated plants) |

— patent publication US5057146A (priority 1986, dated 1991)
